Data set [1] deals with Lu1: human lung cell. Put plainly: anti-cancer activity test (cytotoxicity), Lu1. The format is cell-based. Particulars: Homo sapiens; Lu1 cells.
Data set [2] concerns A431: human squamous cell. Nature of the data set: anti-cancer activity test (cytotoxicity), A431. The format is cell-based. Particulars: Homo sapiens, A-431; A431 cells.
In data set [3] the test system is Col2: human colon cell. Nature of the data set: anti-cancer activity test (cytotoxicity), Col2. It counts as cell-based. To be noted: Homo sapiens; Col2 cells.
For data set [4], the system named is HT-1088: human fibrosarcoma cell. Put plainly: anti-cancer activity test (cytotoxicity), HT. It counts as cell-based. Particulars: Homo sapiens; HT cells.
In data set [5] the test system is LNCaP: human prostate cell. Nature of the data set: anti-cancer activity test (cytotoxicity), LNCaP. The format is cell-based. Particulars: Homo sapiens; LNCaP cells.
In data set [6] the test system is U373: human glioma cell. Put plainly: anti-cancer activity test (cytotoxicity), U373. It counts as cell-based. To be noted: Homo sapiens, U373 MG; U373 cells.
Data set [7] concerns KB-V: drug resisteant KB cell. Put plainly: anti-cancer activity test (cytotoxicity), KB-V. It counts as cell-based, human. To be noted: Homo sapiens, KB-V cells.
The target in data set [8] is T1, HIV-1 RT(p66) (Human immunodeficiency virus type 1 group M subtype B, UniProt P04585).
T1 construct: 1-10 at 200 μg/ml to HIV-1 RT(p66)
Nature of the data set: anti-virus activity test, HIV-1 RT(p66) inhibition. The format is biochemical.

The test system of data set [9] is ZR-75-1: human breast cell. Nature of the data set: anti-cancer activity test (cytotoxicity), ZR-75-1. It counts as cell-based. Particulars: Homo sapiens; ZR-75-1 cells.
The test system of data set [10] is P-388: mouse lymphaid Macrophage cell. Nature of the data set: anti-cancer activity test (cytotoxicity), P-388. The format is cell-based. Particulars: Mus musculus, P388; P-388 cells.
The test system of data set [11] is human cancer cell lines. Put plainly: anti-cancer activity test, overall over the cell line panel. It counts as cell-based. Particulars: summary of Table 1. As to the method: (§1) The compounds were further screened on 60 human cancer cell lines by Developmental Therapeutics Program Human Tumor Cell Line Screen set up by the National Cancer Institute of the U. S. A. The screening procedures are described briefly hereinafter. Cell suspensions that were diluted according to the particular cell type and the expected target cell density (5000-40,000 cells per well based on cell growth characteristics) were added by pipet (100 μL) into 96-well microtiterplates. Inoculates were allowed a preincubation period of 24 hours at 37° C. for stabilization. Dilutions at twice the intended test concentration were added in 100 μL aliquots to the microtiter plate wells at time zero. Usually, test compounds were evaluated at five 10-fold dilutions. In routine testing, the highest well concentration was 10^−4 M, but for the standard agents the highest well concentration used depended on the agent. Incubations lasted for 48 hours in 5% CO2 atmosphere and 100% humidity. The cells were assayed by using the sulforhodamine B assay. A plate reader was used to read the optical densities, and a microcomputer processed the optical densities into the special concentration parameters. The results of these tests with representative compounds of the present invention appear in Table 1 and 2

For data set [12], the system named is BC-1: human breast cell. Nature of the data set: anti-cancer activity test (cytotoxicity), BC 1. It counts as cell-based. To be noted: Homo sapiens, BC1; BC 1 cells.
For data set [13], the system named is Mel2: human melanoma cell. Put plainly: anti-cancer activity test (cytotoxicity), Mel2. The format is cell-based. To be noted: Homo sapiens; Mel2 cells.
Data set [14] concerns KB: human oral epidormaid Carcinama cell. Put plainly: anti-cancer activity test (cytotoxicity), KB. It counts as cell-based. Particulars: Homo sapiens; KB cells. How it is done: as §1

The source of these data is patent US6777564B2, “Anthraquinone compound” (Industrial Technology Research Institute, priority 2001, dated 2004).

Structures are written as SMILES. Converted amounts (≈) assume the structure as drawn. A value given as a limit tells only on which side of the number the result lay.

One may read the inhibition as the drop in the measured response relative to a control, in per cent. Consider `N=C(N)NCC(=O)Nc1ccc2c(c1NC(=O)CNC(=N)N)C(=O)c1ccccc1C2=O` [Example 10, 1,2-di(guanidinoacetamido)anthraquinone], for which the IC50 was above 20 µg/mL in [1]; 1.7 µg/mL (≈ 3.9 µM) in [2]; above 20 µg/mL in [3]; 8.9 µg/mL (≈ 20.4 µM) in [4]; 18 µg/mL (≈ 41.2 µM) in data set [5]; 6.9 µg/mL (≈ 15.8 µM) in data set [6]. Besides, the IC50 in [7] (with vinblastine (+VLB)) was 6.3 µg/mL (≈ 14.4 µM); in [7] (without vinblastine (−VLB)), above 20 µg/mL; in data set [8] (HIV-1 RT(p66), read-out: IC50 (μg/ml) (converted)), 69.4 µM; in [9] it was above 20 µg/mL; in [10], above 5 µg/mL; in data set [12], 10.2 µg/mL (≈ 23.4 µM). For the same compound, the IC50 was above 20 µg/mL in [13] and 3.2 µg/mL (≈ 7.33 µM) in [14]. The same compound gave an inhibition at 200 µg/mL in data set [8] (at 200 μg/ml, HIV-1 RT(p66)) of 92.3%. Moreover, the “activity inhibition / anti-virus ability (in words)” value in data set [8] (at the concentration of 200 μg/ml) is listed as “excellent effect on activity inhibition”. In addition, the “cytotoxic activity to cancer cell lines (in words)” value in data set [11] is listed as “more effective to most cancer cell lines”.
